Values after ≈ are worked out from the molar mass of the structure shown. Values joined by “and” are separate entries in the source; they are usually repeats but may differ in a detail not shown here. Identical values can stand only once.
Tests used:
[1] = molecular target: CYP2E1 (Homo sapiens, UniProt P05181); conditions: human liver microsomes, CYP2E1, N9 0.01–100 μmol L^-1
[2] = tested on: mycolic acids synthesis in M. tuberculosis cells; type: cell-based; conditions: N9 at 10 and 25 μg/mL, 18 hours
[3] = tested on: CYP3A4/5; experiment: in vitro; conditions: human, microsomes, pH 7.4
[4] = molecular target: CYP2D6 (Homo sapiens, UniProt P10635); conditions: human liver microsomes, CYP2D6, N9 0.01–100 μmol L^-1
Chain of CYP2D6 (P10635 whole entry): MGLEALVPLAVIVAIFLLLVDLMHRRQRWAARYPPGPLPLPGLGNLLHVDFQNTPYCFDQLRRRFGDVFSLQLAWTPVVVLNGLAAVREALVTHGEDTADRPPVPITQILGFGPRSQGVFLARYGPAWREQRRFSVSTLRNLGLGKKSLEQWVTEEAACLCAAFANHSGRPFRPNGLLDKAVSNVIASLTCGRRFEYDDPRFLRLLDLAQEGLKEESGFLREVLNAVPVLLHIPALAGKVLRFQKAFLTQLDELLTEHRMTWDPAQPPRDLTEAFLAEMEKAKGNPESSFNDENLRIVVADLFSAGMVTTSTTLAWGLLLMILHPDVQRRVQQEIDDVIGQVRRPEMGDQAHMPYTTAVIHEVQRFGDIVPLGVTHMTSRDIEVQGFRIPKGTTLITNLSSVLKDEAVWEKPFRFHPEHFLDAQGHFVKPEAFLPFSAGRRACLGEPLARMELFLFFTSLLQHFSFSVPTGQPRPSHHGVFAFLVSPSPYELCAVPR

[5] = molecular target: CYP2C9 (Homo sapiens, UniProt P11712); conditions: human liver microsomes
Chain of CYP2C9 (P11712 whole entry): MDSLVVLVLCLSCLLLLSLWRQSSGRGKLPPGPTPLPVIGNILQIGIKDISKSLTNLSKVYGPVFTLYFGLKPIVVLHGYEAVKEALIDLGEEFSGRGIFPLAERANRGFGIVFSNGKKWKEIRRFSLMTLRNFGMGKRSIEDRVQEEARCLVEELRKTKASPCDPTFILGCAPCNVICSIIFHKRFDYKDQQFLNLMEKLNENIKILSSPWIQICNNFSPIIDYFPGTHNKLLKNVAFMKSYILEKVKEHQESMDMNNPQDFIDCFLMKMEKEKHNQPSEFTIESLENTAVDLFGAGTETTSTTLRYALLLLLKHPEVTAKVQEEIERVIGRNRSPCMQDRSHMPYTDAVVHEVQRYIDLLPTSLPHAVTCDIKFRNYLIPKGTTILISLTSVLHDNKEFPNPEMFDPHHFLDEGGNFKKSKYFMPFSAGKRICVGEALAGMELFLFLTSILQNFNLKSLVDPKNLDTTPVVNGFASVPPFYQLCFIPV

[6] = tested on: M. tuberculosis H37Rv; experiment: Checkerboard assay, two-drug combination with REMA readout; type: cell-based, Mycobacterium tuberculosis; conditions: for MIC Combined: checkerboard, three independent experiments
[7] = tested on: M. tuberculosis pNIP::KatG(WT); experiment: microbe, parasite or virus in culture; type: cell-based; conditions: Mycobacterium tuberculosis

Chain of CYP2E1 (P05181 whole entry): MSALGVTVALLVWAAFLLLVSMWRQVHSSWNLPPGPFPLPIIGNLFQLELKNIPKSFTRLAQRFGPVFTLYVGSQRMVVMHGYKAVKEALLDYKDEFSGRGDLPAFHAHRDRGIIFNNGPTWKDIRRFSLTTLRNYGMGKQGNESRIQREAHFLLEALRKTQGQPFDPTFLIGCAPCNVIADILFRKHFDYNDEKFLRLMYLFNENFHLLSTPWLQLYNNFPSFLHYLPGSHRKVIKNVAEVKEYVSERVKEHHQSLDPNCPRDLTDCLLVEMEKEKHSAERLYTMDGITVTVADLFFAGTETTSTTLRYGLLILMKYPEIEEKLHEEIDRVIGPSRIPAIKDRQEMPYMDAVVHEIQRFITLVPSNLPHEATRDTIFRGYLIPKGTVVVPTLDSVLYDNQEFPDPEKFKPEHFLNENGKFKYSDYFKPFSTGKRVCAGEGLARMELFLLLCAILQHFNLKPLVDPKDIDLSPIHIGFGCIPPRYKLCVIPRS

## COc1ccc(OC)c(C(=O)/C=C/c2ccc3nccnc3c2)c1 [N9]
[1]
  percentage of remaining enzyme activity: approximately 100%
[2]
  Effect on synthesis of mycolic acids and non-hydroxylated fatty acids: did not inhibit
[3]
  IC50: > 100 µM
[4]
  percentage of remaining enzyme activity: approximately 100%
[5]
  Inhibitory potential: weak inhibitory potential
[6]; N9 combined with MFX
  FICI (fractional inhibitory concentration index): below 0.5
[6]; combination N9 + EMB
  MIC Combined: 0.78 µg/mL
[6]; combination N9 + INH
  MIC Combined: 0.78 µg/mL
[6]; combination N9 + RIF
  MIC Combined: 0.78 µg/mL and 1.56 µg/mL
[7]
  MIC: 3.13 µg/mL (≈ 9.77 µM)

— publication PMC6095594, “Pre-clinical evaluation of quinoxaline-derived chalcones in tuberculosis” (PLoS ONE, 2018)
